Source: EP0497921B1, “METHOD FOR INHIBITING ENZYMATIC SYNTHESIS OF NUCLEIC ACIDS USING ISOPSORALENS” (ISAACS, Stephen T., priority 1989, dated 1991)

Columns and labels:
[1] = tested on: Molt-4 human genomic DNA target; experiment: Sterilization of genomic target before PCR (174 bp beta globin product); type: biochemical
Protocol: Four samples containing 1 µg of Molt-4 human genomic DNA target were prepared for PCR with primers KM 29 (5'-[…]) and HRI-12 (5'-[…]). These primers give a 174 bp product within the human beta globin gene. All four samples contained AMDMIP at 100 µg/ml, and were irradiated for 0, 5, 10 or 15 minutes prior to PCR amplification. […] Amplification were carried out in 1 x Taq buffer (50 mM KCl, 10 mM Tris pH 8.5, 2.5 mM MgCl2, 200 µg/ml gelatin), 175 µM each dNTP, 20 µM primer with 2.5 units of Taq polymerase and 100 µg/ml AMDMIP present during amplification. PCR was carried out for 30 cycles; one cycle = 30 sec at 94°C (denaturing), 30 sec at 55°C (primer annealing), and 60 sec at 72°C (extension). α-^32P-dCTP was used as an internal label. After amplification, the samples were analyzed for product by PAGE followed by autoradiaography.

calf thymus DNA = experiment: Binding of photoproduct to nucleic acid in the dark (DNA-associated tritium counts); details: no device, no irradiation
Protocol: The nucleic acid binding properties of photoproduct were investigated with calf thymus DNA. 200 µg/ml of ^3H-AMDMIP (1 x 10^5 CPM/ml) in Taq buffer was irradiated at room temperature with either the CE-III device or the PTI device. This irradiation was performed for 15 minutes in the absence of nucleic acid. Following the irradiations, 200 µl of the irradiated solution was mixed with 200 µl of 1000 µg/ml DNA solution in Taq buffer. Several identical samples were prepared in this manner. one set of samples was allowed to react with the DNA for 2 hours at room temperature. The other set of samples was subjected to 30 cycles of heating and cooling by placing the samples in a thermal cycler [Perkin-Elmer Cetus DNA Thermal Cycler (Part No. N8010150); each cycle involved 93°C for 30 seconds, 55°C for 30 seconds and 72°C for 1 minute]. When the DNA reactions were complete, all samples were analyzed for DNA-associated tritium counts (CPM) by following the flow chart outlined in FIgure 17.
For calculation purposes, these adducts are reported as if they represented monomers of AMDMIP. Regardless of the accuracy of this approximation, the process of irradiating ^3H-AMDMIP clearly results in a tritiated product which associates (i.e. binds) with DNA in the absence of subsequent activating wavelengths of electromagnetic radiation. […]

500-mer = experiment: Post-amplification sterilization: isopsoralen plus irradiation, reamplification of carryover; type: biochemical, lambda; details: CE-III 15 minutes, 500-mer PCR product, 30 cycles
Protocol: The two PCR targets used in these experiments were a 115-mer (SK-38/SK-39 HIV system) and a 500-mer. The 500-mer target is obtained from a PCR amplification of a lambda plasmid with primers PCR 01/02. This system is provided by Cetus/Perkin Elmer as a control in their commercial kits of PCR reagents (Catalogue No. N801-0055). For both of these systems equivalent copy numbers of each target were prepared in the following manner: An initial 30 cycle PCR reaction was carried out for each system with the appropriate primers and targets. Aliquots (approximately 10^5-10^6 target copies) of each of these reactions were transferred to a second set of PCR reactions. These second sets of PCR amplifications were carried out in the presence of α-^32P-dCTP, again for 30 cycles. Aliquots of these reactions were removed and counted by liquid scintillation counting. With these numbers, the specific activity of the α-32P-dCTP, and the sequence of each of the PCR product oligonucleotides (115-mer and 500-mer), the concentrations of each of the two PCR product oligonucleotides in the second set of PCR reaction tubes was determined. Both the 115-mer and the 500-mer concentrations were then adjusted to exactly 1 x 10^-8 M by the addition of additional Taq buffer. These stocks of equivalent copy number of PCR products were then used for further investigation. Each of the stock solutions then was subdivided into four reaction tubes. The reaction tubes were adjusted to contain the following: Tube 1, 100 µg/ml AMIP; Tube 2, 400 µg/ml AMIP; Tube 3, 100 µg/ml AMDMIP; and Tube 4, 400 µg/ml AMDMIP. Each of these samples were again split into two portions, one part being irradiated for 15 minutes at room temperature with the CE-III device and the other part kept in the dark. Serial dilutions of the irradiated and the unirradiated targets were then carried out on these samples for 30 cycles in the presence of α-32P-CTP. Aliquots of these samples were analyzed on denaturing polyacrylamide gels. The PCR product bands were visualized by autoradiography, cut, and counted in a liquid scintillation counter.

Substance	impact of unirradiated AMDMIP on amplification ([1]; 100 µg/ml, data not shown)	amplification after irradiation in the presence of AMDMIP ([1]; AMDMIP 100 µg/ml, irradiated 0, 5, 10 or 15 minutes prior to PCR, 30 cycles)	ADDUCTS PER (calf thymus DNA; dark reaction Room Temp. (2 hours))	ADDUCTS PER (calf thymus DNA; dark reaction Thermally Cycled (30 cycles))	sterilization sensitivity (molecules of carryover sterilized) (500-mer; 100 µg/ml)	sterilization sensitivity (molecules of carryover sterilized) (500-mer; 400 µg/ml)
4'-Aminomethyl-4,5'-dimethylisopsoralen [AMDMIP]	no significant impact on amplification	no amplification of the sterilized genomic target	1.1	0.9	≥ 6 x 10^9 carryover molecules	no signal in the irradiated dilution series
5-Aminomethylisopsoralen [AMIP]	–	–	–	–	more effectively sterilized than the 115-mer PCR product	≥ 6 x 10^9 molecules of carryover
